Source: patent US20230339851A1, “CXCR6 SULFONAMIDE COMPOUNDS” (CHEMOCENTRYX, INC., priority 2022, published 2023)

Target: T1, human CXCR6 (Homo sapiens, UniProt O00574)
T1 construct: expressed in transfected cells
Assay: Radioligand Binding Assay (125I-CXCL16 displacement)
Settings: L1.2 cells stably transfected with human CXCR6 cDNA, 0.1 nM 125I-CXCL16, 4° C., three-hour incubation; read-out: Potency (IC50)
How it was run: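 Displacement of 0.1 nM 125I-CXCL16 from human CXCR6 stably expressed in L1.2 cells was measured after a 3 h, 4 °C incubation in HBSS with 0.1% BSA. Filter-bound cpm were counted, and IC50 values came from a 3-parameter nonlinear fit.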

T1 sequence (O00574 whole entry): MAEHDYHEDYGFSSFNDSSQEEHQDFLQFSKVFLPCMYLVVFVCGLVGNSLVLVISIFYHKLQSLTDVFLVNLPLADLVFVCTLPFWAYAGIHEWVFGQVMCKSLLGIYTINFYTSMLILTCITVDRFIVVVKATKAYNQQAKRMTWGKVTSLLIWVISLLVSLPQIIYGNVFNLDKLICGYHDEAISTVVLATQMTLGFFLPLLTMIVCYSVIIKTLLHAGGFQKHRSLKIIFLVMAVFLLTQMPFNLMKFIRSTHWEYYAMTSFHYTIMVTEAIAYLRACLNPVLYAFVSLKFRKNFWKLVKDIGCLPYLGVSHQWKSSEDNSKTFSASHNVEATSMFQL

| Compound | IC50 [nM] |
| --- | --- |
| COc1cc(NC(=O)C2=CCCCC2)ccc1S(=O)(=O)Nc1cccc(OC(F)(F)F)c1 [Example 1.090] | 750 to 2000 |
| CCOc1cc(NC(=O)[C@@H](N)C(C)CC)ccc1S(=O)(=O)Nc1cccc(OC(F)(F)F)c1 (some centres unmarked) [Example 1.243] | ≤ 200 |
| COc1cc(NC(=O)C2CCOC2)ccc1S(=O)(=O)Nc1cccc(OC(F)(F)F)c1 (centres unmarked) [Example 1.042] | 750 to 2000 |
| Cc1cc(NC(=O)[C@@H]2CCCN2C)ccc1S(=O)(=O)Nc1cccc(C(F)(F)F)c1 [Example 1.422] | 2000 to 20000 |
| CCOCCOCCC(C(=O)O)C(=O)Nc1ccc(S(=O)(=O)Nc2cccc(OC(F)(F)F)c2)c(OCC)c1 (centres unmarked) [Example 1.476] | 200 to 750 |
| CCOc1cc(NC(=O)[C@@H](CO)c2ccccc2)ccc1S(=O)(=O)Nc1cccc(C2CC2)c1 [Example 1.080] | ≤ 200 |
| CCOc1cc(NC(=O)[C@@H](CO)c2ccccc2)ccc1S(=O)(=O)Nc1ccc(F)c(C)c1 [Example 1.405] | 200 to 750 |
| CCOc1cc(NC(=O)[C@@H]2CC=CC[C@H]2O)ccc1S(=O)(=O)Nc1cccc(OC(F)(F)F)c1 [Example 1.505] | ≤ 200 |
| Cc1cc(NC(=O)C(C)(C)C)ccc1S(=O)(=O)Nc1cccc(C(F)(F)F)c1 [Example 1.434] | 2000 to 20000 |
| CCOc1cc(NC(=O)[C@@H](CO)C2CC2)ccc1S(=O)(=O)Nc1cccc(C(C)C)c1 [Example 1.025] | ≤ 200 |
| CCOc1cc(NC(=O)[C@@H](O)C(C)C)ccc1S(=O)(=O)Nc1ccc(C2CC2)c(OC(F)(F)F)c1 [Example 1.521] | ≤ 200 |
| COc1cc(NC(=O)[C@H]2CCCC[C@H]2O)ccc1S(=O)(=O)Nc1cccc(OC(F)(F)F)c1 [Example 1.111] | 200 to 750 |
| CCOc1cc(NC(=O)C(CO)C2CCCCC2)ccc1S(=O)(=O)Nc1cccc(OC(F)(F)F)c1 (centres unmarked) [Example 1.113] | ≤ 200 |
| CCOc1cc(NC(=O)C(C(C)C)C(C)O)ccc1S(=O)(=O)Nc1cccc(OC(F)(F)F)c1 (centres unmarked) [Example 1.133] | ≤ 200 |
| Cc1cc(NC(=O)c2ccnn2C)cc(F)c1S(=O)(=O)Nc1cccc(C(F)(F)F)c1 [Example 1.520] | 750 to 2000 |
| C=Cc1cc(NS(=O)(=O)c2ccc(NC(=O)[C@@H](CO)c3ccccc3)cc2OCC)ccc1C [Example 1.372] | ≤ 200 |
| COc1cc(NC(=O)[C@H]2CCOC[C@H]2C)ccc1S(=O)(=O)Nc1cccc(C(F)(F)F)c1 (racemic) [Example 1.219] | 200 to 750 |
| Cc1cc(NC(=O)C(F)(F)F)ccc1S(=O)(=O)Nc1cccc(C(F)(F)F)c1 [Example 1.467] | 2000 to 20000 |
| CCOc1cc(NC(=O)[C@@H](CO)c2ccccc2)ccc1S(=O)(=O)Nc1ccc(C)c(C(C)C)c1 [Example 1.439] | ≤ 200 |
| CCc1cc(NC(=O)C2CCOCC2)ccc1S(=O)(=O)Nc1cccc(OC(F)(F)F)c1 [Example 1.056] | ≤ 200 |
| CC(C)c1cc(NC(=O)c2ccnn2C)ccc1S(=O)(=O)Nc1cccc(C(F)(F)F)c1 [Example 1.384] | 200 to 750 |
| C=CC(=O)Nc1ccc(S(=O)(=O)Nc2cccc(OC(F)(F)F)c2)c(OCC)c1 [Example 1.583] | 200 to 750 |
| CCOc1cc(NC(=O)[C@@H](O)C(C)C)ccc1S(=O)(=O)Nc1cccc(C(F)(F)F)c1 [Example 1.088] | ≤ 200 |
| CC(=O)Nc1cc(C)c(S(=O)(=O)Nc2cccc(C(F)(F)F)c2)c(F)c1 [Example 1.451] | 2000 to 20000 |
| COc1cc(NC(=O)c2ccnn2C)ccc1S(=O)(=O)Nc1ccc(Br)c(OC(F)(F)F)c1 [Example 1.397] | ≤ 200 |
| CCOc1cc(NC(=O)[C@@H](N)C(C)C)ccc1S(=O)(=O)Nc1cccc(OC(F)(F)F)c1 [Example 1.454] | ≤ 200 |
| COc1cc(NC(=O)c2ccccc2)ccc1S(=O)(=O)Nc1cccc(C(F)(F)F)c1 [Example 1.040] | 200 to 750 |

| Compound | IC50 [nM] |
| --- | --- |
| COc1cc(NC(=O)[C@@H](CO)C2CC2)ccc1S(=O)(=O)Nc1cccc(OC(F)(F)F)c1 [Example 1.283] | ≤ 200 |
| CCOc1cc(NC(=O)c2ccc(OC)cc2)ccc1S(=O)(=O)Nc1cccc(OC(F)(F)F)c1 [Example 1.568] | 750 to 2000 |
| CCc1cc(C(=O)Nc2ccc(S(=O)(=O)Nc3cccc(C(F)(F)F)c3)c(OC)c2)n(C)n1 [Example 1.027] | 750 to 2000 |
| COc1cc(NC(C)=O)ccc1S(=O)(=O)Nc1cccc(C(F)(F)F)c1 [Example 1.374] | 2000 to 20000 |
| CCOc1cc(NC(=O)[C@H](C2CCCC2)[C@@H](C)O)ccc1S(=O)(=O)Nc1cccc(OC(F)(F)F)c1 (racemic) [Example 1.147] | ≤ 200 |
| CCOc1cc(NC(=O)[C@@H](CO)c2ccccc2)ccc1S(=O)(=O)Nc1ccc(Cl)c(C)c1 [Example 1.258] | 200 to 750 |
| CCOc1cc(NC(=O)C2(c3ccccc3)CC2)ccc1S(=O)(=O)Nc1cccc(OC(F)(F)F)c1 [Example 1.394] | 750 to 2000 |
| Cc1cc(NC(=O)c2cncn2C)ccc1S(=O)(=O)Nc1cccc(C(F)(F)F)c1 [Example 1.048] | 2000 to 20000 |
| CCOc1cc(NC(=O)[C@@H](O)[C@@H](C)CC)ccc1S(=O)(=O)Nc1ccc(F)c(OC(F)(F)F)c1 [Example 1.259] | ≤ 200 |
| CCc1cc(NC(C)=O)ccc1S(=O)(=O)Nc1cccc(C(F)(F)F)c1 [Example 1.382] | 750 to 2000 |
| Cc1cc(NC(=O)C2CCCCC2C)ccc1S(=O)(=O)Nc1cccc(C(F)(F)F)c1 (centres unmarked) [Example 1.538] | 750 to 2000 |
| CCOc1cc(NS(=O)(=O)c2ccc(NC(=O)[C@@H](CO)C(C)C)cc2OCC)ccc1Cl [Example 1.488] | 200 to 750 |
| COc1cc(NC(=O)C2CCC(O)CC2)ccc1S(=O)(=O)Nc1cccc(C(F)(F)F)c1 (centres unmarked) [Example 1.140] | 2000 to 20000 |
| COc1cc(NC(=O)c2cc(C(F)(F)F)nn2C)ccc1S(=O)(=O)Nc1cccc(C(F)(F)F)c1 [Example 1.430] | 750 to 2000 |
| COc1cc(NC(=O)CC2CCCO2)ccc1S(=O)(=O)Nc1cccc(C(F)(F)F)c1 (centres unmarked) [Example 1.189] | 2000 to 20000 |
| CCOc1cc(NC(=O)[C@@H](N)C(C)O)ccc1S(=O)(=O)Nc1cccc(OC(F)(F)F)c1 (some centres unmarked) [Example 1.032] | ≤ 200 |
| COc1cc(NC(=O)c2ccnn2C)ccc1S(=O)(=O)Nc1cccc(C)c1 [Example 1.242] | 2000 to 20000 |
| CCOc1cc(NC(=O)C(CO)C(C)C)ccc1S(=O)(=O)Nc1ccc(Cl)c(OC)c1 (centres unmarked) [Example 1.018] | ≤ 200 |
| Cc1cc(NC(=O)CN(C)C)ccc1S(=O)(=O)Nc1cccc(C(F)(F)F)c1 [Example 1.553] | 2000 to 20000 |
| CCOc1cc(NC(=O)C2CCC[C@H]2O)ccc1S(=O)(=O)Nc1cccc(OC(F)(F)F)c1 (some centres unmarked) [Example 1.468] | 200 to 750 |
| CCOc1cc(NC(=O)C(C)c2ccccc2)ccc1S(=O)(=O)Nc1cccc(OC(F)(F)F)c1 (centres unmarked) [Example 1.064] | ≤ 200 |
| CCOc1cc(NC(=O)[C@@H](O)C(C)C)ccc1S(=O)(=O)Nc1cccc(Cl)c1OC [Example 1.216] | 2000 to 20000 |
| O=C(Nc1ccc(S(=O)(=O)Nc2cccc(OC(F)(F)F)c2)c(OC(F)(F)F)c1)[C@@H](CO)c1ccccc1 [Example 1.361] | ≤ 200 |
| CCOc1cc(NC(=O)[C@@H](O)C(C)C)ccc1S(=O)(=O)Nc1ccc(F)c(C)c1 [Example 1.440] | 200 to 750 |
| COc1cc(NC(=O)c2ccnn2C)ccc1S(=O)(=O)Nc1ccc(C#N)cc1 [Example 1.491] | 2000 to 20000 |
| CCOc1cc(NC(=O)C2CCN(C(=O)OC(C)(C)C)CC2)ccc1S(=O)(=O)Nc1cccc(OC(F)(F)F)c1 [Example 1.433] | 2000 to 20000 |
